Reference: PMC6364417, “Kinase inhibitor library screening identifies synergistic drug combinations effective in sensitive and resistant melanoma cells” (Journal of Experimental & Clinical Cancer Research : CR, 2019)
Like-named read-outs stand apart in the source and are kept apart here.

Legend:
Assay in all cases: Kinase inhibitor library screening, PrestoBlue cell viability, 1 or 10 μM, 72 h
501Mel cells (parental) = tested on: 501Mel cells (parental)
Summary of the method: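 Single-point screen at two doses over three days. Parental and BRAF-inhibitor-resistant sublines (XP: Vemurafenib; GP: Dabrafenib) were assessed by PrestoBlue viability, reported relative to untreated cells.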

[1] = tested on: A375-GP cells (Dabrafenib-resistant)
[2] = tested on: IGR37-GP cells (Dabrafenib-resistant)
[3] = tested on: A375-XP cells (Vemurafenib-resistant)
[4] = tested on: 501Mel-GP cells (Dabrafenib-resistant)
A375 cells (parental) = tested on: A375 cells (parental)
[5] = tested on: 501Mel-XP cells (Vemurafenib-resistant)
IGR37 cells (parental) = tested on: IGR37 cells (parental)
[6] = tested on: IGR37-XP cells (Vemurafenib-resistant)
[7] = 501Mel Parental, 1μΜ, 72 h, in %
[8] = 501Mel Parental, 10μΜ, 72 h, in %
[9] = IGR37 Parental, 1μΜ, 72 h, in %
[10] = IGR37 Parental, 10μΜ, 72 h, in %

Row | Structure (SMILES) | Cell viability in kinase inhibitor library screening, 501Mel Parental, 1μΜ (501Mel cells (parental); [7]) | Cell viability in kinase inhibitor library screening, 501Mel Parental, 10μΜ (501Mel cells (parental); [8]) | Cell viability in kinase inhibitor library screening, A375 GP, 1μΜ ([1]; A375 GP, 1μΜ, 72 h) | Cell viability in kinase inhibitor library screening, A375 GP, 10μΜ ([1]; A375 GP, 10μΜ, 72 h) | Cell viability in kinase inhibitor library screening, IGR37 GP, 10μΜ ([2]; IGR37 GP, 10μΜ, 72 h) [%] | Cell viability in kinase inhibitor library screening, IGR37 GP, 1μΜ ([2]; IGR37 GP, 1μΜ, 72 h, in %) | Cell viability in kinase inhibitor library screening, A375 XP, 1μΜ ([3]; A375 XP, 1μΜ, 72 h) | Cell viability in kinase inhibitor library screening, A375 XP, 10μΜ ([3]; A375 XP, 10μΜ, 72 h) | Cell viability in kinase inhibitor library screening, 501Mel GP, 1μΜ ([4]; 501Mel GP, 1μΜ, 72 h, in %) | Cell viability in kinase inhibitor library screening, 501Mel GP, 10μΜ ([4]; 501Mel GP, 10μΜ, 72 h, in %) | Cell viability in kinase inhibitor library screening, A375 Parental, 10μΜ (A375 cells (parental); A375 Parental, 10μΜ, 72 h) | Cell viability in kinase inhibitor library screening, A375 Parental, 1μΜ (A375 cells (parental); A375 Parental, 1μΜ, 72 h) | Cell viability in kinase inhibitor library screening, 501Mel XP, 10μΜ ([5]; 501Mel XP, 10μΜ, 72 h, in %) | Cell viability in kinase inhibitor library screening, IGR37 Parental, 1μΜ (IGR37 cells (parental); [9]) | Cell viability in kinase inhibitor library screening, IGR37 Parental, 10μΜ (IGR37 cells (parental); [10]) | Cell viability in kinase inhibitor library screening, IGR37 XP, 10μΜ ([6]; IGR37 XP, 10μΜ, 72 h) [%] | Cell viability in kinase inhibitor library screening, IGR37 XP, 1μΜ ([6]; IGR37 XP, 1μΜ, 72 h, in %) | Cell viability in kinase inhibitor library screening, 501Mel XP, 1μΜ ([5]; 501Mel XP, 1μΜ, 72 h, in %) | other results
1 | FC(F)c1nc2ccccc2n1-c1nc(N2CCOCC2)nc(N2CCOCC2)n1 [ZSTK474] | 66.9 | 8.9 | 69.9 | 13.0 | 8.8 | 80.3 | 67.6 | 15.9 | 45.9 | 9.4 | 16.3 | 76.3 | 2.5 | 77.8 | 23.8 | 4.7 | 71.7 |  | 
2 | COc1cc(Nc2ncc(F)c(Nc3ccc4c(n3)NC(=O)C(C)(C)O4)n2)cc(OC)c1OC.O=S(=O)(O)c1ccccc1 [R406] |  |  |  |  |  |  |  |  |  |  |  |  |  |  |  |  |  |  | cell viability (kinase inhibitor library screening) (501Mel cells (parental); 501Mel Parental, 1μΜ, in %): 89.8; cell viability (kinase inhibitor library screening) (501Mel cells (parental); 501Mel Parental, 10μΜ, in %): 71.4; cell viability (kinase inhibitor library screening) ([1]; A375 GP, 10μΜ, in %): 54.6; cell viability (kinase inhibitor library screening) ([2]; IGR37 GP, 1μΜ, in %): 90.2; cell viability (kinase inhibitor library screening) ([2]; IGR37 GP, 10μΜ, in %): 56.0; cell viability (kinase inhibitor library screening) ([3]; A375 XP, 1μΜ, in %): 99.5; cell viability (kinase inhibitor library screening) ([3]; A375 XP, 10μΜ, in %): 69.5; cell viability (kinase inhibitor library screening) ([4]; 501Mel GP, 1μΜ, in %): 86.1; cell viability (kinase inhibitor library screening) ([4]; 501Mel GP, 10μΜ, in %): 50.0; cell viability (kinase inhibitor library screening) (A375 cells (parental); A375 Parental, 1μΜ, in %): 104.7; cell viability (kinase inhibitor library screening) (A375 cells (parental); A375 Parental, 10μΜ, in %): 58.1; cell viability (kinase inhibitor library screening) ([5]; 501Mel XP, 1μΜ, in %): 102.9; cell viability (kinase inhibitor library screening) ([5]; 501Mel XP, 10μΜ, in %): 48.7; cell viability (kinase inhibitor library screening) (IGR37 cells (parental); IGR37 Parental, 1μΜ, in %): 103.3; cell viability (kinase inhibitor library screening) (IGR37 cells (parental); IGR37 Parental, 10μΜ, in %): 95.3; cell viability (kinase inhibitor library screening) ([6]; IGR37 XP, 1μΜ, in %): 89.4; cell viability (kinase inhibitor library screening) ([6]; IGR37 XP, 10μΜ, in %): 27.5
3 | O=C(Nc1cccc(Nc2ncc(Br)c(NCCc3cnc[nH]3)n2)c1)N1CCCC1 [BX-912] | 93.6 | 63.6 | 87.6 | 38.0 | 55.1 |  | 88.9 | 36.6 | 99.2 | 59.6 | 34.9 | 92.0 | 48.6 | 91.9 | 65.1 | 16.7 | 94.7 | 89.5 | 
4 | Nc1nc(Nc2ccc(S(N)(=O)=O)cc2)nn1C(=O)c1c(F)cccc1F [JNJ-7706621] |  |  |  |  |  |  |  |  |  |  |  |  |  |  |  |  |  |  | cell viability (kinase inhibitor library screening) (501Mel cells (parental); 501Mel Parental, 10μΜ, 72 h): 0.466%; cell viability (kinase inhibitor library screening) ([1]; A375 GP, 1μΜ, 72 h): 89.4%; cell viability (kinase inhibitor library screening) ([1]; A375 GP, 10μΜ, 72 h): 3.0%; cell viability (kinase inhibitor library screening) ([2]; IGR37 GP, 1μΜ, 72 h): 99.1%; cell viability (kinase inhibitor library screening) ([2]; IGR37 GP, 10μΜ, 72 h): 18.2%; cell viability (kinase inhibitor library screening) ([3]; A375 XP, 1μΜ, 72 h): 93.1%; cell viability (kinase inhibitor library screening) ([3]; A375 XP, 10μΜ, 72 h): 5.9%; cell viability (kinase inhibitor library screening) ([4]; 501Mel GP, 1μΜ, 72 h): 110.0%; cell viability (kinase inhibitor library screening) ([4]; 501Mel GP, 10μΜ, 72 h): 0.28%; cell viability (kinase inhibitor library screening) (A375 cells (parental); A375 Parental, 10μΜ, 72 h): 5.3%; cell viability (kinase inhibitor library screening) (A375 cells (parental); A375 Parental, 1μΜ, 72 h): 89.1%; cell viability (kinase inhibitor library screening) ([5]; 501Mel XP, 1μΜ, 72 h): 97.8%; cell viability (kinase inhibitor library screening) ([5]; 501Mel XP, 10μΜ, 72 h): -0.273%; cell viability (kinase inhibitor library screening) (IGR37 cells (parental); IGR37 Parental, 1μΜ, 72 h): 95.5%; cell viability (kinase inhibitor library screening) (IGR37 cells (parental); IGR37 Parental, 10μΜ, 72 h): 9.4%; cell viability (kinase inhibitor library screening) ([6]; IGR37 XP, 1μΜ, 72 h): 106.1%; cell viability (kinase inhibitor library screening) ([6]; IGR37 XP, 10μΜ, 72 h): 2.5%
5 | CC(C)n1nc(-c2ccc3oc(N)nc3c2)c2c(N)ncnc21 [INK 128] | 15.4 | 5.9 | 21.6 | 13.0 | 16.8 | 44.7 | 19.9 | 12.7 | 17.2 | 6.6 | 13.5 | 19.9 | 2.4 | 22.4 | 13.5 | 6.1 | 27.3 | 11.6 | 
6 | CC(=O)Nc1nc(C)c(-c2ccc(Cl)c(S(=O)(=O)NCCO)c2)s1 [PIK-93] |  |  |  |  |  |  |  |  |  |  |  |  |  |  |  |  |  |  | Cell viability in kinase inhibitor library screening, 501Mel Parental, 1μΜ (501Mel cells (parental); in %): 88.1; Cell viability in kinase inhibitor library screening, 501Mel Parental, 10μΜ (501Mel cells (parental); in %): 25.0; Cell viability in kinase inhibitor library screening, A375 GP, 1μΜ [1]: 97.8; Cell viability in kinase inhibitor library screening, A375 GP, 10μΜ [1]: 37.8; Cell viability in kinase inhibitor library screening, IGR37 GP, 10μΜ [2]: 59.9%; Cell viability in kinase inhibitor library screening, IGR37 GP, 1μΜ ([2]; in %): 91.0; Cell viability in kinase inhibitor library screening, A375 XP, 1μΜ [3]: 88.7; Cell viability in kinase inhibitor library screening, A375 XP, 10μΜ [3]: 36.0; Cell viability in kinase inhibitor library screening, 501Mel GP, 1μΜ ([4]; in %): 98.2; Cell viability in kinase inhibitor library screening, 501Mel GP, 10μΜ ([4]; in %): 25.1; Cell viability in kinase inhibitor library screening, A375 Parental, 1μΜ (A375 cells (parental)): 97.3; Cell viability in kinase inhibitor library screening, A375 Parental, 10μΜ (A375 cells (parental)): 47.7; Cell viability in kinase inhibitor library screening, 501Mel XP, 1μΜ ([5]; in %): 90.7; Cell viability in kinase inhibitor library screening, 501Mel XP, 10μΜ ([5]; in %): 10.6; Cell viability in kinase inhibitor library screening, IGR37 Parental, 1μΜ (IGR37 cells (parental); in %): 96.9; Cell viability in kinase inhibitor library screening, IGR37 Parental, 10μΜ (IGR37 cells (parental); in %): 72.6; Cell viability in kinase inhibitor library screening, IGR37 XP, 10μΜ [6]: 27.5%; Cell viability in kinase inhibitor library screening, IGR37 XP, 1μΜ ([6]; in %): 84.1
7 | COc1ccc(-c2ccc3ncc4c(c3c2)n(-c2ccc(N3CCNCC3)c(C(F)(F)F)c2)c(=O)n4C)cn1 [NVP-BGT226] | 1.2 | 1.1 | 7.1 | 0.9 | 2.6 | 2.9 | 7.2 | 1.0 | 0.9 | 0.145 | 0.952 | 9.1 | 1.1 | 2.3 | -1.8 | 1.4 | 2.5 | 1.5 | 
8 | COc1cc2c(Nc3ccc(NC(=O)c4ccccc4)cc3)ncnc2cc1OCCCN1CCOCC1 [ZM-447439] |  |  |  |  |  |  |  |  |  |  |  |  |  |  |  |  |  |  | cell viability (kinase inhibitor library screening) (501Mel cells (parental); 501Mel Parental, 1μΜ, 72 h): 90.8%; cell viability (kinase inhibitor library screening) (501Mel cells (parental); 501Mel Parental, 10μΜ, 72 h): 7.6%; cell viability (kinase inhibitor library screening) ([1]; A375 GP, 1μΜ, 72 h): 79.5%; cell viability (kinase inhibitor library screening) ([1]; A375 GP, 10μΜ, 72 h): 52.0%; cell viability (kinase inhibitor library screening) ([2]; IGR37 GP, 1μΜ, 72 h): 96.5%; cell viability (kinase inhibitor library screening) ([2]; IGR37 GP, 10μΜ, 72 h): 69.7%; cell viability (kinase inhibitor library screening) ([3]; A375 XP, 1μΜ, 72 h): 88.7%; cell viability (kinase inhibitor library screening) ([3]; A375 XP, 10μΜ, 72 h): 65.2%; cell viability (kinase inhibitor library screening) ([4]; 501Mel GP, 1μΜ, 72 h): 104.5%; cell viability (kinase inhibitor library screening) ([4]; 501Mel GP, 10μΜ, 72 h): 2.3%; cell viability (kinase inhibitor library screening) (A375 cells (parental); A375 Parental, 10μΜ, 72 h): 56.3%; cell viability (kinase inhibitor library screening) (A375 cells (parental); A375 Parental, 1μΜ, 72 h): 76.7%; cell viability (kinase inhibitor library screening) ([5]; 501Mel XP, 1μΜ, 72 h): 90.5%; cell viability (kinase inhibitor library screening) ([5]; 501Mel XP, 10μΜ, 72 h): -0.26%; cell viability (kinase inhibitor library screening) (IGR37 cells (parental); IGR37 Parental, 1μΜ, 72 h): 103.7%; cell viability (kinase inhibitor library screening) (IGR37 cells (parental); IGR37 Parental, 10μΜ, 72 h): 54.6%; cell viability (kinase inhibitor library screening) ([6]; IGR37 XP, 1μΜ, 72 h): 95.9%; cell viability (kinase inhibitor library screening) ([6]; IGR37 XP, 10μΜ, 72 h): 24.7%
